Key:
[1] = system: 125 representative kinases; experiment: 125 kinase selectivity panel (overall); type: biochemical; settings: 10 μM
Protocol: Kinase selectivity was evaluated at Eurofins Pharma Discovery Services using a selection of 125 representative kinases tested at a concentration of 10 μM in duplicate (S3 Table). IC50 values for selected activities were further characterized at 9 duplicate concentrations. DNA-PK activity was determined at the SelectScreen® Biochemical kinase Profiling Service of Thermo Fisher Scientific.

EphB4 = molecular target: T1, EphB4 (Homo sapiens, UniProt P54760); experiment: kinase selectivity panel; type: biochemical; settings: read-out: percentage of control activity (POC), EphB4
T1 construct: purchased Eurofins Pharma Discovery Services (KinaseProfiler; Cerep BioPrint panel)
T1 sequence (P54760 16-987): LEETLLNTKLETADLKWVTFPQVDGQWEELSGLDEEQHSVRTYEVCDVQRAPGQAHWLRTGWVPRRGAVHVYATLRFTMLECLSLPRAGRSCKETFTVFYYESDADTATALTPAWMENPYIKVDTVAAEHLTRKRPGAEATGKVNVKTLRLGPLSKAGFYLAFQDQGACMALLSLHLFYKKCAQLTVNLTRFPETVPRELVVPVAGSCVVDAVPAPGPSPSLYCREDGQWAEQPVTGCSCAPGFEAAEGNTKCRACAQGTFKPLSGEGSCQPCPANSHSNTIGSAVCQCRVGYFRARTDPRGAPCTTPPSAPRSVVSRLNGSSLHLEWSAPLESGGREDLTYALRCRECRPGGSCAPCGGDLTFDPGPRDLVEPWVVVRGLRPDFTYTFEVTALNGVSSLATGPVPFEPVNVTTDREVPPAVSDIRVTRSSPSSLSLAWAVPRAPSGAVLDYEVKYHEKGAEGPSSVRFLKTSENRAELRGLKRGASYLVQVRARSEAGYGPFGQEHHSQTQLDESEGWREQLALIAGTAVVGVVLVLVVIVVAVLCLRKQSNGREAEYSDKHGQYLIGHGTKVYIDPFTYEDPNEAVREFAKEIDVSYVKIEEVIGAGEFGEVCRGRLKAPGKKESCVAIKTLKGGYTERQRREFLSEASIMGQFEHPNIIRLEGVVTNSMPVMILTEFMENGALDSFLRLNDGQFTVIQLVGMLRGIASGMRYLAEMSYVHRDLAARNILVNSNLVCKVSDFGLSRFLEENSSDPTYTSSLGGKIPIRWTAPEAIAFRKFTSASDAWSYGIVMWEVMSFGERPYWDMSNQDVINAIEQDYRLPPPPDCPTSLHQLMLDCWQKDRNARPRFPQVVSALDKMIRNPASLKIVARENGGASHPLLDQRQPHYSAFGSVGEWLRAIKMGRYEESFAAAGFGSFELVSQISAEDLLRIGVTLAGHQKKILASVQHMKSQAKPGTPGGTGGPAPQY
How it was run: (§1)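 The compound is screened at 10 μM in duplicate against 125 representative kinases. Selected activities are followed up with a nine-concentration duplicate titration to give IC50.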

JNK3 = molecular target: T2, JNK3 (Homo sapiens, UniProt P53779); experiment: kinase selectivity panel; type: biochemical; settings: read-out: percentage of control activity (POC), JNK3
T2 construct: purchased Eurofins Pharma Discovery Services (KinaseProfiler; Cerep BioPrint panel)
How it was run: as §1

IKKε = molecular target: T3, IKKε (Homo sapiens, UniProt Q14164); experiment: kinase selectivity panel; type: biochemical; settings: read-out: percentage of control activity (POC), IKKε
T3 construct: purchased Eurofins Pharma Discovery Services (KinaseProfiler; Cerep BioPrint panel)
T3 sequence (Q14164 1-716): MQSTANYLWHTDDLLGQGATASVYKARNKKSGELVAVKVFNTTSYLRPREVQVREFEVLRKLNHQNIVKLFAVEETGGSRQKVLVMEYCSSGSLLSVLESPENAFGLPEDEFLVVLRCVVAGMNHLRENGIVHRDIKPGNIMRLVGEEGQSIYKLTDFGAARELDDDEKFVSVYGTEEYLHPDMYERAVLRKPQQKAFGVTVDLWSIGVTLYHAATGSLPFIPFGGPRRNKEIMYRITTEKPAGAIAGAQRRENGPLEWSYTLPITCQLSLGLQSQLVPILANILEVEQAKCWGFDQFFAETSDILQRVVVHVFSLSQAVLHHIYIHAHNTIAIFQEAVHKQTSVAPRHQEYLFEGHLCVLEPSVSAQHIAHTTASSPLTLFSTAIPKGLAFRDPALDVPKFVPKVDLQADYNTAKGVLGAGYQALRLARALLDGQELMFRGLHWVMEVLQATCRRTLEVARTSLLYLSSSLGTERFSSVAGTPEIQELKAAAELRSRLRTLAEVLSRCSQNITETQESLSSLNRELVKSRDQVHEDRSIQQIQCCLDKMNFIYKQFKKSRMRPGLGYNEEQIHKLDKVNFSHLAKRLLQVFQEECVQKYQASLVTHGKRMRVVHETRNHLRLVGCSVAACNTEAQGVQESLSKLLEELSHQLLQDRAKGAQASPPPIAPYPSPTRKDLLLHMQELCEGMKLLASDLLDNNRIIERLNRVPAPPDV
How it was run: as §1

c-RAF = molecular target: T4, c-RAF (Homo sapiens, UniProt P04049); experiment: kinase selectivity panel; type: biochemical; settings: read-out: percentage of control activity (POC), c-RAF
T4 construct: purchased Eurofins Pharma Discovery Services (KinaseProfiler; Cerep BioPrint panel)
How it was run: as §1

NEK2 = molecular target: T5, NEK2 (Homo sapiens, UniProt P51955); experiment: kinase selectivity panel; type: biochemical; settings: read-out: percentage of control activity (POC), NEK2
T5 construct: purchased Eurofins Pharma Discovery Services (KinaseProfiler; Cerep BioPrint panel)
T5 sequence (P51955 1-445): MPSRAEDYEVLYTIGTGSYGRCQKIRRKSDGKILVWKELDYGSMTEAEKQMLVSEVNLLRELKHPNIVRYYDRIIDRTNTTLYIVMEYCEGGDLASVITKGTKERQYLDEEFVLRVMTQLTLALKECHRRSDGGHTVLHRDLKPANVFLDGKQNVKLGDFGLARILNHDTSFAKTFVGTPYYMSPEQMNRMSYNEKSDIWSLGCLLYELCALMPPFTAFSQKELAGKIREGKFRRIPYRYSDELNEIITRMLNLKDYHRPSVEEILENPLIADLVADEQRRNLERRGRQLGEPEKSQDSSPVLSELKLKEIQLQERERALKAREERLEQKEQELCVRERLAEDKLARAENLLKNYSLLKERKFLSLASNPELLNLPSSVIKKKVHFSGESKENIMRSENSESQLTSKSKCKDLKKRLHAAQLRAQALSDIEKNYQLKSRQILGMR
How it was run: as §1

5-HT2B = molecular target: T6, 5-HT2B (Homo sapiens, UniProt P41595); experiment: BioPrint panel: 5-HT2B (h) (agonist); type: binding; settings: 1 micromolar, read-out: percentage of inhibition of activity
T6 construct: purchased Eurofins Pharma Discovery Services (KinaseProfiler; Cerep BioPrint panel)
From the text: (§2) Supplement pone.0189247.s004.xlsx, sheet "Bioprint Selectivity Panel" | column: %

ERK2 (P42mapk) = molecular target: T7, ERK2 (P42mapk) (Homo sapiens, UniProt P28482); experiment: BioPrint panel: ERK2 (h) (P42mapk); type: biochemical; settings: 1 micromolar, read-out: percentage of inhibition of activity
T7 construct: purchased Eurofins Pharma Discovery Services (KinaseProfiler; Cerep BioPrint panel)
From the text: as §2

A2B = molecular target: T8, A2B (Homo sapiens, UniProt P29275); experiment: BioPrint panel: A2B (h) (antagonist); type: binding; settings: 1 micromolar, read-out: percentage of inhibition of activity
T8 construct: purchased Eurofins Pharma Discovery Services (KinaseProfiler; Cerep BioPrint panel)
From the text: as §2

[2] = system: COMT (catechol- O-methyl transferase); experiment: BioPrint panel: COMT (catechol- O-methyl transferase); type: biochemical; settings: 1 micromolar
From the text: as §2

alpha 2C = molecular target: T9, alpha 2C (Homo sapiens, UniProt P18825); experiment: BioPrint panel: alpha 2C (h) (antagonist); type: binding; settings: 1 micromolar, read-out: percentage of inhibition of activity
T9 construct: purchased Eurofins Pharma Discovery Services (KinaseProfiler; Cerep BioPrint panel)
From the text: as §2

T4 sequence (P04049 whole entry): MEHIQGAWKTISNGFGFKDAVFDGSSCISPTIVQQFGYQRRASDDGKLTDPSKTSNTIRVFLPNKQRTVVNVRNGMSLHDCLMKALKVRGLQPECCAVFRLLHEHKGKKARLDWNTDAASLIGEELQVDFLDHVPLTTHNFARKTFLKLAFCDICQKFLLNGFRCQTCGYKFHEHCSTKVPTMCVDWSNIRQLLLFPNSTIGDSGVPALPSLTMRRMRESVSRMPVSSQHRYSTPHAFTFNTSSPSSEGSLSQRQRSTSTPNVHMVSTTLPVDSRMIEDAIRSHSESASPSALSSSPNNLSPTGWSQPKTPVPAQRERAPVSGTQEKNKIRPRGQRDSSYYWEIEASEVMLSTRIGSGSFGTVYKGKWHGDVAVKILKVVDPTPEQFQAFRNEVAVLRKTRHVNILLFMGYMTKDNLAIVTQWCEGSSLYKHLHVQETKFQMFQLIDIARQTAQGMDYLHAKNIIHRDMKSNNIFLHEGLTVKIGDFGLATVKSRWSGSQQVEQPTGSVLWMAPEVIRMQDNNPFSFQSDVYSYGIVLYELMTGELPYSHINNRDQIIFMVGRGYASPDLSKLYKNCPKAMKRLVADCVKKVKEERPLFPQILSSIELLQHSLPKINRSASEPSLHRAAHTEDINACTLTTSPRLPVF
T2 sequence (P53779 whole entry): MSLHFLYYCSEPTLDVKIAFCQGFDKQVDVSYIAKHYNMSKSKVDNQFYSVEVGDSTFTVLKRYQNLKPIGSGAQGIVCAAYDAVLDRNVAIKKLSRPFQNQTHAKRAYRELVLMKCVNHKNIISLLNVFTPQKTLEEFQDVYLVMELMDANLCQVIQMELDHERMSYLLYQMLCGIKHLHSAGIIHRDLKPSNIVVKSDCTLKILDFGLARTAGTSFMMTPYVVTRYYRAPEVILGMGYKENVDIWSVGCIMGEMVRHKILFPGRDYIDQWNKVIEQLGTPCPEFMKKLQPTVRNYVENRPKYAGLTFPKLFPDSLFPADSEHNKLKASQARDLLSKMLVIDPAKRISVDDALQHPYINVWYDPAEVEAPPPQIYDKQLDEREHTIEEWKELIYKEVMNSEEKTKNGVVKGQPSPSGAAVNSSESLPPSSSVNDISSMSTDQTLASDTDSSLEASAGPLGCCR
T8 sequence (P29275 whole entry): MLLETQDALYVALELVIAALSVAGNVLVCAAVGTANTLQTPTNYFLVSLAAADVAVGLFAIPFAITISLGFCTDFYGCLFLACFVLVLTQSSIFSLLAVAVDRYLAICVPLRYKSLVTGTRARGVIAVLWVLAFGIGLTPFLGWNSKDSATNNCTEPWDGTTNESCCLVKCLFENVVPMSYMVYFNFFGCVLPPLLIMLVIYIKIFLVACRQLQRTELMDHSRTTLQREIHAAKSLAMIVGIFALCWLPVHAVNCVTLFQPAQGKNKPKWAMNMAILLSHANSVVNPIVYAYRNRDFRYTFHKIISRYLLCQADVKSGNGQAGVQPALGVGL
T6 sequence (P41595 whole entry): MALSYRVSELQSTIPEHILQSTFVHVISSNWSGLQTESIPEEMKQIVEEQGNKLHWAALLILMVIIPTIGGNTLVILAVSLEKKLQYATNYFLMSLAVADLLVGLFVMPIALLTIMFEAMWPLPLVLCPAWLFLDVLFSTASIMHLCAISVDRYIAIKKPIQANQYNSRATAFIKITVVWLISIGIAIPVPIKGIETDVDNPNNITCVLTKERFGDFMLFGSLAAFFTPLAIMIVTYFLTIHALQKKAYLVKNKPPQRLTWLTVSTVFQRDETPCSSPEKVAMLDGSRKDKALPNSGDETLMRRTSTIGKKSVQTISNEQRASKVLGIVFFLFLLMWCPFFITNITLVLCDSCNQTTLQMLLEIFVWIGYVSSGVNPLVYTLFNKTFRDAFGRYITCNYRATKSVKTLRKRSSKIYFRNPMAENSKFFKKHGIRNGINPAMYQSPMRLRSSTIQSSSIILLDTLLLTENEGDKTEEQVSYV
T7 sequence (P28482 whole entry): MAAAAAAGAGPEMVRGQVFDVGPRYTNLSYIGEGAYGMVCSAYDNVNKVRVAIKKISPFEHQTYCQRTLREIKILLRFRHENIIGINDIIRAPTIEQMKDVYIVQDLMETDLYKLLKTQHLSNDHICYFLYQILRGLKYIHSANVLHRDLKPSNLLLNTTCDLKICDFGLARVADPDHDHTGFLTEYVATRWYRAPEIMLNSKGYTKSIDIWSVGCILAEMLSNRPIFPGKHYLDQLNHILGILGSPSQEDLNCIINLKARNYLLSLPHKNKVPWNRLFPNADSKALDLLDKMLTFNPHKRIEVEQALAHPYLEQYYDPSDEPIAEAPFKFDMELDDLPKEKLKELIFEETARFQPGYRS
T9 sequence (P18825 whole entry): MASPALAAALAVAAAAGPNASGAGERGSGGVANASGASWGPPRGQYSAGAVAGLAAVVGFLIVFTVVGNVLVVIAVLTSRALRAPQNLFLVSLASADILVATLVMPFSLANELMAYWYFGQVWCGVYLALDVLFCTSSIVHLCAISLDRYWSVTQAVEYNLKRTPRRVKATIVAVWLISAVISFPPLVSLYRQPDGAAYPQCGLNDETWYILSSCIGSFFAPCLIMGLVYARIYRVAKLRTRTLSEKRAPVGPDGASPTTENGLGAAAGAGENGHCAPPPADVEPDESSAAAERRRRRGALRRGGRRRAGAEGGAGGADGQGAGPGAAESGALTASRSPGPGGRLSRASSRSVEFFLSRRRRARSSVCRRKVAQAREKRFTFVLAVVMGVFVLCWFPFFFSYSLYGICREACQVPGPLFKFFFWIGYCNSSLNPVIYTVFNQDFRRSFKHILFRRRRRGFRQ

Row | SMILES | inhibition in the rest of the panel [1] | remaining activity at 10 µM (EphB4) | remaining activity at 10 µM (JNK3) | remaining activity at 10 µM (IKKε) | remaining activity at 10 µM (c-RAF) | remaining activity at 10 µM (NEK2) | inhibition at 1 µM (5-HT2B) | inhibition at 1 µM (ERK2 (P42mapk)) | inhibition at 1 µM (A2B) | percentage of inhibition of activity [2] | inhibition at 1 µM (alpha 2C)
1 | CC(C)(C)N1CCC(c2cc(-c3ccc(F)cc3Cl)c3cc[n+]([O-])c(-c4c(Cl)cccc4Cl)c3n2)CC1 [compound 2] | less than 50% | 91% | 97% | 101% | 112% | 100% |  |  |  |  | 
2 | Cc1ccc(C(=O)NCC2CC2)cc1-c1ccc2c(c1)NC(=O)C21CCCC1 [compound 3] | less than 50% | 105% | 65% | 102% | 54% | 99% |  |  |  |  | 
3 | Cn1cc(-c2cccc(-c3nc(C(=O)NC4C5CC6CC4CC(O)(C6)C5)c(N)nc3N)c2)cn1 (centres unmarked) [compound 4] |  | 99% | 72% | 96% | 52% | 85% | -7.9% | 14.3% | -3% | INTER | -14.1%
4 | CS(=O)(=O)N1CCN(c2ccc(Nc3ncc(C(N)=O)c(NC4CC4)n3)cc2)CC1 [compound 5] |  | 36% | -4% | 0% | 10% | 4% |  |  |  |  | 
5 | COc1c(NC(=O)c2ccc(C)c(-c3nnc4c(NCC(C)(C)C)nccn34)c2)cc(C(C)(C)C)cc1NS(C)(=O)=O [compound 7, reference compound] |  | 92% | 75% | 100% | 61% | 95% |  |  |  |  | 

From publication PMC5761851, “Application of a phenotypic drug discovery strategy to identify biological and chemical starting points for inhibition of TSLP production in lung epithelial cells” (PLoS ONE, 2018)
